The text below walks through data of BindingDB's records for doi:10.1016/s0022-2836(03)00862-3 (Morphochem, 2003).

Bounds are passed on as bounds.

Sequence of Methionine aminopeptidase (P0A079 whole entry): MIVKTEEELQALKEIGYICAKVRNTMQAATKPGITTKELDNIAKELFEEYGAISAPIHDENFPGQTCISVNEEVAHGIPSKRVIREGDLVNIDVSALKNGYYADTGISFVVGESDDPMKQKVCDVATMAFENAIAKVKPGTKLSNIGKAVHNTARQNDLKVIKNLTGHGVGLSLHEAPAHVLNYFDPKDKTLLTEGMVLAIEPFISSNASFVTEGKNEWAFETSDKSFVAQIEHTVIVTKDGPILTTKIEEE

This experiment deals with Methionine aminopeptidase (Staphylococcus aureus (strain MW2), UniProt P0A079). Put plainly: MetAP Inhibition Assay. As to conditions: pH 7.5; 22 °C. How it is done:
The MetAP reaction with Co2+ as a cofactor is coupled to a prolyl aminopeptidase (ProAP) using Met-Pro-p-nitroanilide as substrate. MetAP-catalyzed cleavage of the N-terminal methionine produces prolyl-p-nitroanilide, which is rapidly hydrolyzed by ProAP to release a chromogenic product. This allows the MetAP reaction to be continuously monitored at 405 nm on a UVVIS spectrophotometer. The initial rate was calculated from the early part of the reaction progress curve (<5 min). Activity assays were performed in triplicate using eight to 16 concentrations of substrate or inhibitor.
As a reminder, the IC50 is the concentration that inhibits the measured activity by half. Lower therefore signals greater potency. Regarding `Cn1cnnc1SCc1ccccc1` [1,2,4-triazole derivative.], the IC50 was over 100000 nM.
As for `Nc1n[nH]c(SCc2ccccc2)n1` [1,2,4-triazole derivative.], the figure is 599 nM.
Compound `CSCC[C@H](N)c1nnc(SCc2ccccc2)[nH]1` [1,2,4-triazole derivative.] had a 50% inhibitory concentration (IC50) of 43.7 nM. Compared with the last compound, the IC50 is about 14-fold lower.
